What was measured:
[1] = system: RSV respiratory tract virus (A long strain); assay: RSV long CPE assay (cytopathic effect assay), EC50; assay type: cell-based; settings: human respiratory syncytial virus, HEp-2, 120 h; Hep2 cells infected with RSV A long strain, 5 days, CCK-8 readout
Experimental: (§1) Detect EC50 and CC50 values of anti RSV respiratory tract virus compounds through the cytopathic effect assay.
Virus strain: RSV respiratory tract virus (A long strain)
(§2) The cell plate was centrifugated (300 rpm) to make the cells adherent to the wall, placed into a 37° C., 5% CO2 incubator overnight.
(§3) 1) the compound in 100% DMSO underwent a semi logarithmic dilution, then was added to the cell plate with a Echo liquid handler. Ensure that the final concentration of DMSO was 1%;
(§4) 2) Cell-control hole: no compound and viruse were added; virus-control hole: no compound was added.
dilute RSV viruses to 100 TCID50/30 μL with medium cultured with 4° C. cells, and then add the diluted viruses to a cell plate (30 μL/hole) with Multidrop® automatic liquid distributor, and then placed into a 37° C., 5% CO2 culture incubator for 5 days.
1) after 5 days, observe the pathological change in each hole.
(§5) 2) add CCK-8 (Dojindo-CK04-20, 6 μL/hole) to 384 well plate with Multidrop® automatic liquid distributor;
(§6) 3) place the plate at a 37° C., 5% CO2 culture incubator for 3˜4 h, read the absorbance value with SPECTRA max 340PC_Molecular device at 450 nm and 630 nm;

[2] = RSV long CPE assay (cytopathic effect assay), CC50 toxicity in vitro; assay type: cell-based; settings: human, Hep2 cells, CCK-8 readout, top concentration 100 μM
Experimental: as §1, §2, §3, §4, §5, §6

SMILES | EC50 [1] [nM] | CC50 at 5 days [2] [nM]
CC(C)OC(=O)N1CC2(C1)C(=O)N(Cc1nc3c(n1CCCC(F)(F)F)CCCC3)c1cccc(Cl)c12 [Embodiment 86, Isopropyl 4′-chloro-2′-oxo-1′-((1-(4,4,4-trifluorobutyl)-4,5,6,7-tetrahydro-1H-benzo[d]imidazol-2-yl)methyl)spiro[azetidine-3,3′-indoline]-1-carboxylate] | < 100 | > 100000
CC(C)OC(=O)N1CC2(C1)C(=O)N(Cc1nc3c(n1CCCC(F)(F)F)CCCC3)c1ccc(Br)cc12 [Embodiment 79, Isopropyl 5′-bromo-2′-oxo-1′-((1-(4,4,4-trifluorobutyl)-4,5,6,7-tetrahydro-1H-benzo[d]imidazol-2-yl)methyl)spiro[azetidine-3,3′-indoline]-1-carboxylate] | < 100 | > 100000
CCOC(=O)N1CC2(C1)C(=O)N(Cc1nc3c(n1CCCC#N)CCCC3)c1ccccc12 [Embodiment 74, Ethyl 1′-((1-(3-cyanopropyl)-4,5,6,7-tetrahydro-1H-benzo[d]imidazol-2-yl)methyl)-2′-oxospiro[azetidine-3,3′-indoline]-1-carboxylate] | < 100 | > 100000
O=C1N(Cc2nc3c(n2CCCCO)CCCC3)c2ccccc2C12CC2 [Embodiment 63, 1′-((1-(4-Hydroxybutyl)-4,5,6,7-tetrahydro-1H-benzo[d]imidazol-2-yl)methyl)spiro[cyclopropane-1,3′-indoline]-2′-one] | < 100 | > 100000
CC(C)=C(F)Cn1c(CN2C(=O)C3(CN(C(=O)OC(C)C)C3)c3ccccc32)nc2c1CCCC2 [Embodiment 71, Isopropyl 1′-((1-(2-fluoro-3-methylbut-2-en-1-yl)-4,5,6,7-tetrahydro-1H-benzo[d]imidazol-2-yl)methyl)-2′-oxospiro[azetidine-3,3′-indoline]-1-carboxylate] | 100 to 1000 | > 100000
O=C(C1CC1)N1CC2(C1)C(=O)N(Cc1nc3c(n1CCCC(F)(F)F)CCCC3)c1ccccc12 [Embodiment 93, 1-(Cyclopropanecarbonyl)-1′-((1-(4,4,4-trifluorobutyl)-4,5,6,7-tetrahydro-1H-benzo[d]imidazol-2-yl)methyl)spiro[azetidine-3,3′-indoline]-2′-one] | < 100 | > 100000
CCOC(=O)N1CC2(C1)C(=O)N(Cc1nc3c(n1CCCC(F)(F)F)CCCC3)c1ccccc12 [Embodiment 75, Ethyl 2′-oxo-1′-((1-(4,4,4-trifluorobutyl)-4,5,6,7-tetrahydro-1H-benzo[d]imidazol-2-yl)methyl)spiro[azetidine-3,3′-indoline]-1-carboxylate] | < 100 | > 100000
CC(C)OC(=O)N1CC2(C1)C(=O)N(Cc1nc3c(n1/C=C(\F)C(C)C)CCCC3)c1ccccc12 [Embodiment 70, Isopropyl (Z)-1′-((1-(2-fluoro-3-methylbut-1-en-1-yl)-4,5,6,7-tetrahydro-1H-benzo[d]imidazol-2-yl)methyl)-2′-oxospiro[azetidine-3,3′-indoline]-1-carboxylate] | < 100 | > 100000
C=CCCn1c(CN2C(=O)C3(CN(C(=O)OC(C)C)C3)c3ccc(Cl)cc32)nc2c1CCCC2 [Embodiment 107, Isopropyl 1′-((1-(but-3-en-1-yl)-4,5,6,7-tetrahydro-1H-benzo[d]imidazol-2-yl)methyl)-6′-chloro-2′-oxospiro[azetidine-3,3′-indoline]-1-carboxylate] | < 100 | > 100000
CC(C)OC(=O)N1CC2(C1)C(=O)N(Cc1nc3c(n1CCCC(F)(F)F)CCCC3)c1cnccc12 [Embodiment 88, Isopropyl 2′-oxo-1′-((1-(4,4,4-trifluorobutyl)-4,5,6,7-tetrahydro-1H-benzo[d]imidazol-2-yl)methyl)-1′,2′-dihydrospiro[azetidine-3,3′-pyrrolo[2,3-c]pyridine]-1-carboxylate] | < 100 | > 100000
CC(C)OC(=O)N1CC2(C1)C(=O)N(Cc1nc3c(n1CCCC(F)(F)F)CCCC3)c1cc(Cl)ccc12 [Embodiment 81, Isopropyl 6′-chloro-2′-oxo-1′-((1-(4,4,4-trifluorobutyl)-4,5,6,7-tetrahydro-1H-benzo[d]imidazol-2-yl)methyl)spiro[azetidine-3,3′-indoline]-1-carboxylate] | < 100 | > 100000
CCOC(=O)N1CC2(C1)C(=O)N(Cc1nc3c(n1CCCC(F)(F)F)CCCC3)c1cnccc12 [Embodiment 87, Ethyl 2′-oxo-1′-((1-(4,4,4-trifluorobutyl)-4,5,6,7-tetrahydro-1H-benzo[d]imidazol-2-yl)methyl)-1′,2′-dihydrospiro[azetidine-3,3′-pyrrolo[2,3-c]pyridine]-1-carboxylate] | < 100 | > 100000
CC(C)OC(=O)N1CC2(C1)C(=O)N(Cc1nc3c(n1CC(F)(F)CCF)CCCC3)c1ccccc12 [Embodiment 66, Isopropyl 2′-oxo-1′-((1-(2,2,4-trifluorobutyl)-4,5,6,7-tetrahydro-1H-benzo[d]imidazol-2-yl)methyl)spiro[azetidine-3,3′-indoline]-1-carboxylate] | < 100 | > 100000
CC(C)C(=O)N1CC2(C1)C(=O)N(Cc1nc3c(n1CCCC(F)(F)F)CCCC3)c1ccccc12 [Embodiment 95, 1-Isobutyryl-1′-((1-(4,4,4-trifluorobutyl)-4,5,6,7-tetrahydro-1H-benzo[d]imidazol-2-yl)methyl)spiro[azetidine-3,3′-indoline]-2′-one] | < 100 | > 100000
CC1(C(=O)N2CC3(C2)C(=O)N(Cc2nc4c(n2CCCC(F)(F)F)CCCC4)c2ccccc23)CC1 [Embodiment 91] | < 100 | > 100000
CC(C)OC(=O)N1CC2(C1)C(=O)N(Cc1nc3c(n1CCCC(F)(F)F)CCC3)c1ccccc12 [Embodiment 102, Isopropyl 2′-oxo-1′-((1-(4,4,4-trifluorobutyl)-1,4,5,6-tetrahydrocyclopenta[d]imidazol-2-yl)methyl)spiro[azetidine-3,3′-indoline]-1-carboxylate] | < 100 | > 100000
O=CN1CC2(C1)C(=O)N(Cc1nc3c(n1CCCC(F)(F)F)CCCC3)c1ccccc12 [Embodiment 90, 2′-Oxo-1′-((1-(4,4,4-trifluorobutyl)-4,5,6,7-tetrahydro-1H-benzo[d]imidazol-2-yl)methyl)spiro[azetidine-3,3′-indoline]-1-carbaldehyde] | < 100 | > 100000
CC(C)OC(=O)N1CC2(C1)C(=O)N(Cc1nc3c(n1CCCC(F)(F)F)C(=O)CCC3)c1ccccc12 [Embodiment 108, Isopropyl 2′-oxo-1′-((7-oxo-1-(4,4,4-trifluorobutyl)-4,5,6,7-tetrahydro-1H-benzo[d]imidazol-2-yl)methyl)spiro[azetidine-3,3′-indoline]-1-carboxylate] | 100 to 1000 | > 100000
CCOC(=O)N1CC2(C1)C(=O)N(Cc1nc(CC)c(CC)n1CCCCO)c1ccccc12 [Embodiment 101, Ethyl 1′-((4,5-diethyl-1-(4-hydroxybutyl)-1H-imidazol-2-yl)methyl)-2′-oxospiro[azetidine-3,3′-indoline]-1-carboxylate] |  | > 100000

From patent US9850251B2, “Imidazole derivative used as antiviral agent and use therof in preparation of medicament” (priority 2013, dated 2017)
